Measured values: patent US6737383B1, “Herbicidal oxadiazolidines” (priority 1999, dated 2004)

Columns and labels:
[1] = tested on: morningglory; assay: Test B pre/postemergence morningglory; format: in vivo, Ipomoea hederacea
Method in brief: (§1)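 Response is a visual 0-to-10 score relative to untreated plants, where 0 means no effect and 10 means complete control, taken twelve to sixteen days after application. Treatments went onto soil at planting and onto foliage of 1- to 4-leaf plants, using a surfactant-containing non-phytotoxic solvent.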

[2] = tested on: surinam grass; assay: Test B pre/postemergence surinam grass; format: in vivo, Brachiaria decumbens
Method in brief: as §1

[3] = tested on: bedstraw; assay: Test B pre/postemergence bedstraw; format: in vivo, Galium aparine
Method in brief: as §1

[4] = tested on: smallflower flatsedge; assay: Test B flood test smallflower flatsedge; format: in vivo, Cyperus difformis
Method in brief: (§2)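 Plants were grown to the 2-leaf stage before treatment with test chemical, then held in a greenhouse for twelve to sixteen days. Injury was visually rated against untreated controls on a 0–10 scale, where 0 is no effect and 10 is complete control.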

[5] = tested on: purple nutsedge; assay: Test B pre/postemergence purple nutsedge; format: in vivo, Cyperus rotundus
Method in brief: as §1

[6] = tested on: cocklebur; assay: Test B pre/postemergence cocklebur; format: in vivo, Xanthium strumarium
Method in brief: as §1

[7] = tested on: rice; assay: Test B flood test rice; format: in vivo, Oryza sativa
Method in brief: as §2

[8] = tested on: blackgrass; assay: Test B pre/postemergence blackgrass; format: in vivo, Alopecurus myosuroides
Method in brief: as §1

[9] = tested on: crabgrass; assay: Test B pre/postemergence crabgrass; format: in vivo, Digitaria sanguinalis
Method in brief: as §1

[10] = tested on: soybean; assay: Test B pre/postemergence soybean; format: in vivo, Glycine max
Method in brief: as §1

[11] = tested on: velvetleaf; assay: Test B pre/postemergence velvetleaf; format: in vivo, Abutilon theophrasti
Method in brief: as §1

[12] = tested on: wild oat; assay: Test B pre/postemergence wild oat; format: in vivo, Avena fatua
Method in brief: as §1

[13] = tested on: corn; assay: Test B pre/postemergence corn; format: in vivo, Zea mays
Method in brief: as §1

[14] = tested on: duck salad; assay: Test B flood test duck salad; format: in vivo, Heteranthera limosa
Method in brief: as §2

[15] = tested on: wheat; assay: Test B pre/postemergence wheat; format: in vivo, Triticum aestivum
Method in brief: as §1

[16] = tested on: giant foxtail; assay: Test B pre/postemergence giant foxtail; format: in vivo, Setaria faberii
Method in brief: as §1

[17] = tested on: sugar beet; assay: Test B pre/postemergence sugar beet; format: in vivo, Beta vulgaris
Method in brief: as §1

[18] = tested on: bamyardgrass; assay: Test B flood test barnyardgrass; format: in vivo, Echinochloa crus-galli
Method in brief: as §2

[19] = tested on: rape; assay: Test B pre/postemergence rape; format: in vivo, Brassica napus
Method in brief: as §1

[20] = tested on: pigweed; assay: Test B pre/postemergence pigweed; format: in vivo, Amaranthus retroflexus
Method in brief: as §1

[21] = Preemergence, Rate 31 g/ha, visual rating, scale 0 to 10 (0 no effect, 10 complete control)
[22] = Preemergence, Rate 62 g/ha, scale of 0 to 10 where 0 is no effect and 10 is complete control
[23] = Preemergence, Rate 250 g/ha, scale of 0 to 10 where 0 is no effect and 10 is complete control
[24] = Rate 31 g/ha, Postemergence, scale 0 to 10
[25] = Rate 62 g/ha, Postemergence, scale of 0 to 10 where 0 is no effect and 10 is complete control
[26] = Rate 125 g/ha, Postemergence, scale 0 to 10
[27] = Rate 125 g/ha, Preemergence, scale of 0 to 10 where 0 is no effect and 10 is complete control
[28] = Rate 62 g/ha, headed Pre-emergence (flood test species), scale 0 to 10 (0 no effect, 10 complete control)
[29] = Rate 250 g/ha, Pre-emergence, flood-test species, scale 0 to 10, 0 is no effect, 10 is complete control

## CC(C)N(C(=O)n1oc(=O)n(CC#C[Si](C)(C)C)c1=O)c1ccc(F)cc1 [Compound 213]
[1]; [21]
  Morningglory plant response rating: 0
[1]; [22]
  Morningglory plant response rating: 0
[1]; [23]
  Morningglory plant response rating: 3
[1]; [24]
  Morningglory plant response rating: 5
[1]; [25]
  Morningglory plant response rating: 6
[1]; [26]
  Morningglory plant response rating: 6
[1]; [27]
  Morningglory plant response rating: 0
[1]; Rate 250 g/ha, Postemergence
  Plant response rating (0 to 10; 0 is no effect, 10 is complete control), Morningglory: 7
[2]; [21]
  B. signalgrass plant response rating: 0
[2]; [22]
  B. signalgrass plant response rating: 0
[2]; Preemergence, Rate 250 g/ha, scale 0 to 10, 0 is no effect, 10 is complete control
  B. signalgrass plant response rating: 0
[2]; [24]
  B. signalgrass plant response rating: 0
[2]; [25]
  B. signalgrass plant response rating: 0
[2]; Rate 125 g/ha, Postemergence, scale 0 (no effect) to 10 (complete control)
  B. signalgrass plant response rating: 0
[2]; [27]
  B. signalgrass plant response rating: 0
[2]; Rate 250 g/ha, Postemergence
  Plant response rating (0 to 10; 0 is no effect, 10 is complete control), B. signalgrass: 2
[3]; [21]
  Bedstraw plant response rating: 0
[3]; [22]
  Bedstraw plant response rating: 0
[3]; [23]
  Bedstraw plant response rating: 0
[3]; [24]
  Bedstraw plant response rating: 0
[3]; [25]
  Bedstraw plant response rating: 0
[3]; [26]
  Bedstraw plant response rating: 3
[3]; [27]
  Bedstraw plant response rating: 0
[3]; Rate 250 g/ha, Postemergence
  Plant response rating (0 to 10; 0 is no effect, 10 is complete control), Bedstraw: 3
[4]; [28]
  S. Flatsedge plant response rating: 0
[4]; [29]
  S. Flatsedge plant response rating: 0
[5]; [22]
  Nutsedge plant response rating: 0
[5]; [24]
  Nutsedge plant response rating: 0
[5]; [25]
  Nutsedge plant response rating: 0
[5]; [26]
  Nutsedge plant response rating: 0
[5]; [27]
  Nutsedge plant response rating: 0
[5]; Rate 250 g/ha, Postemergence
  Plant response rating (0 to 10; 0 is no effect, 10 is complete control), Nutsedge: 0
[6]; [22]
  Cocklebur plant response rating: 0
[6]; [24]
  Cocklebur plant response rating: 0
[6]; [25]
  Cocklebur plant response rating: 0
[6]; [26]
  Cocklebur plant response rating: 0
[6]; [27]
  Cocklebur plant response rating: 0
[6]; Rate 250 g/ha, Postemergence
  Plant response rating (0 to 10; 0 is no effect, 10 is complete control), Cocklebur: 0
[7]; [28]
  Rice plant response rating: 0
[7]; [29]
  Rice plant response rating: 0
[8]; [21]
  Blackgrass plant response rating: 0
[8]; [22]
  Blackgrass plant response rating: 0
[8]; [23]
  Blackgrass plant response rating: 0
[8]; [24]
  Blackgrass plant response rating: 0
[8]; [25]
  Blackgrass plant response rating: 0
[8]; [26]
  Blackgrass plant response rating: 0
[8]; [27]
  Blackgrass plant response rating: 0
[8]; Rate 250 g/ha, Postemergence
  Plant response rating (0 to 10; 0 is no effect, 10 is complete control), Blackgrass: 2
[9]; [21]
  Crabgrass plant response rating: 0
[9]; [22]
  Crabgrass plant response rating: 0
[9]; [23]
  Crabgrass plant response rating: 3
[9]; [24]
  Crabgrass plant response rating: 0
[9]; [25]
  Crabgrass plant response rating: 0
[9]; [26]
  Crabgrass plant response rating: 0
[9]; [27]
  Crabgrass plant response rating: 0
[9]; Rate 250 g/ha, Postemergence
  Plant response rating (0 to 10; 0 is no effect, 10 is complete control), Crabgrass: 2
[10]; [21]
  Soybean plant response rating: 0
[10]; [22]
  Soybean plant response rating: 0
[10]; [23]
  Soybean plant response rating: 0
[10]; [25]
  Soybean plant response rating: 1
[10]; [26]
  Soybean plant response rating: 1
[10]; [27]
  Soybean plant response rating: 0
[10]; Rate 250 g/ha, Postemergence
  Plant response rating (0 to 10; 0 is no effect, 10 is complete control), Soybean: 2
[11]; [21]
  Velvetleaf plant response rating: 0
[11]; [22]
  Velvetleaf plant response rating: 0
[11]; [23]
  Velvetleaf plant response rating: 0
[11]; [25]
  Velvetleaf plant response rating: 0
[11]; [26]
  Velvetleaf plant response rating: 0
[11]; [27]
  Velvetleaf plant response rating: 0
[11]; Rate 250 g/ha, Postemergence
  Plant response rating (0 to 10; 0 is no effect, 10 is complete control), Velvetleaf: 0
[12]; [21]
  Wild oats plant response rating: 0
[12]; [22]
  Wild oats plant response rating: 0
[12]; [23]
  Wild oats plant response rating: 0
[12]; [25]
  Wild oats plant response rating: 0
[12]; [26]
  Wild oats plant response rating: 0
[12]; [27]
  Wild oats plant response rating: 0
[12]; Rate 250 g/ha, Postemergence
  Plant response rating (0 to 10; 0 is no effect, 10 is complete control), Wild oats: 2
[13]; [21]
  Corn plant response rating: 0
[13]; [22]
  Corn plant response rating: 0
[13]; [23]
  Corn plant response rating: 0
[13]; [24]
  Corn plant response rating: 0
[13]; [25]
  Corn plant response rating: 0
[13]; [26]
  Corn plant response rating: 0
[13]; [27]
  Corn plant response rating: 0
[13]; Rate 250 g/ha, Postemergence
  Plant response rating (0 to 10; 0 is no effect, 10 is complete control), Corn: 0
[14]; [28]
  Ducksalad plant response rating: 0
[14]; [29]
  Ducksalad plant response rating: 0
[15]; [21]
  Wheat plant response rating: 0
[15]; [22]
  Wheat plant response rating: 0
[15]; [23]
  Wheat plant response rating: 0
[15]; [25]
  Wheat plant response rating: 0
[15]; [26]
  Wheat plant response rating: 0
[15]; [27]
  Wheat plant response rating: 0
[15]; Rate 250 g/ha, Postemergence
  Plant response rating (0 to 10; 0 is no effect, 10 is complete control), Wheat: 2
[16]; [21]
  Giant foxtail plant response rating: 0
[16]; [22]
  Giant foxtail plant response rating: 0
[16]; [23]
  Giant foxtail plant response rating: 4
[16]; [24]
  Giant foxtail plant response rating: 0
[16]; [25]
  Giant foxtail plant response rating: 0
[16]; [26]
  Giant foxtail plant response rating: 0
[16]; [27]
  Giant foxtail plant response rating: 2
[16]; Rate 250 g/ha, Postemergence
  Plant response rating (0 to 10; 0 is no effect, 10 is complete control), Giant foxtail: 2
[17]; [21]
  Sugarbeets plant response rating: 0
[17]; [22]
  Sugarbeets plant response rating: 0
[17]; [23]
  Sugarbeets plant response rating: 0
[17]; [25]
  Sugarbeets plant response rating: 3
[17]; [26]
  Sugarbeets plant response rating: 3
[17]; [27]
  Sugarbeets plant response rating: 0
[17]; Rate 250 g/ha, Postemergence
  Plant response rating (0 to 10; 0 is no effect, 10 is complete control), Sugarbeets: 4
[18]; [28]
  Barnyardgrass plant response rating: 0
[18]; [29]
  Barnyardgrass plant response rating: 0
[19]; [21]
  Rape plant response rating: 0
[19]; [22]
  Rape plant response rating: 0
[19]; [23]
  Rape plant response rating: 0
[19]; [24]
  Rape plant response rating: 0
[19]; [25]
  Rape plant response rating: 0
[19]; [26]
  Rape plant response rating: 2
[19]; [27]
  Rape plant response rating: 0
[19]; Rate 250 g/ha, Postemergence
  Plant response rating (0 to 10; 0 is no effect, 10 is complete control), Rape: 3
[20]; [21]
  Redroot pigweed plant response rating: 0
[20]; [22]
  Redroot pigweed plant response rating: 0
[20]; [23]
  Redroot pigweed plant response rating: 5
[20]; [24]
  Redroot pigweed plant response rating: 0
[20]; [25]
  Redroot pigweed plant response rating: 5
[20]; [26]
  Redroot pigweed plant response rating: 7
[20]; [27]
  Redroot pigweed plant response rating: 4
[20]; Rate 250 g/ha, Postemergence
  Plant response rating (0 to 10; 0 is no effect, 10 is complete control), Redroot pigweed: 7
